Structures are written as SMILES. A value given as a limit tells only on which side of the number the result lay.

The term EC50 denotes the concentration that produces a half-maximal response.

The target of this assay is T1, muscarinic M1 receptor (Homo sapiens, UniProt P11229).
T1 construct: expressed in transfected cells; host or cells: CHO (M1-CHO cells)
T1 sequence (P11229 1-460): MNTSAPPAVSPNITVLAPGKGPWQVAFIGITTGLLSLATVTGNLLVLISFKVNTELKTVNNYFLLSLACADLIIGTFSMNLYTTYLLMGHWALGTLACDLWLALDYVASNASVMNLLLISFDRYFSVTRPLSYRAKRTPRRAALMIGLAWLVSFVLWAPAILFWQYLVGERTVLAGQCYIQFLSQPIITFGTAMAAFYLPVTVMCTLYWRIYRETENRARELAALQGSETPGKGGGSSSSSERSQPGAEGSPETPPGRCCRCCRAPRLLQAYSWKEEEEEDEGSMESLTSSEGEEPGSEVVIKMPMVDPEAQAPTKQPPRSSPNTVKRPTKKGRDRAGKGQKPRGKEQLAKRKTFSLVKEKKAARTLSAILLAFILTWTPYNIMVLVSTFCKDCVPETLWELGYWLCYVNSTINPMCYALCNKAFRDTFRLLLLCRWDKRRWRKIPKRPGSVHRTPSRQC
Nature of the assay: M1 PAM Assay (IP-One HTRF, IP1 in M1-CHO cells with EC20 of acetylcholine). The settings on record: 1 hour at room temperature, IP1 readout. The format is cell-based. On the procedure: M1-CHO cells are plated in culture medium (HAM's F12, P/S, 10% FCS) on the day before the experiment with 10 000 cells/well in a 384 well plate (3750 Corning White 384 w plate with lid). On the day of experiment, cells are washed with PBS and IPone buffer is added (glucose 5.5 mM, NaCl 146 mM, MgCl2 0.5 mM, HEPES 10 mM, LiCl 50 mM, CaCl2 1 mM, KCl 4.2 mM). Then diluted compounds (1% DMSO final concentration) are added together with EC20 of acetylcholine and incubated with the cells for 1 hour at room temperature. The intracellular concentration of IP1 is then measured using the IP-One HTRF assay from Cisbio.
(Time-resolved FRET reads energy transfer from a long-lived donor to a nearby acceptor.)
`Cc1nc2c3c(nn2c(C)c1C)CN(C(=O)c1ccccc1-n1cccn1)C3` [Example 39, (2-pyrazol-1-yl-phenyl)-(5,6,7-trimethyl-1H,3H-2,4,7a,8-tetraaza-cyclopenta[a]inden-2-yl)-methanone]: the EC50 is 1000 to 2000 nM. On to `Cc1cnc2c3c(nn2c1C)CN(C(=O)c1ccccc1N1CCCN(C)CC1)C3` [Example 41, (6,7-dimethyl-1H,3H-2,4,7a,8-tetraaza-cyclopenta[a]inden-2-yl)-[2-(4-methyl-[1,4]diazepan-1-yl)-phenyl]-methanone], for which the EC50 was in the range of 1000 to 2000 nM.

Consider `CC(=O)Oc1ccccc1C(=O)N1Cc2nn3c(C)c(C)c(C)nc3c2C1` [Example 23, acetic acid 2-(5,6,7-trimethyl-1H,3H-2,4,7a,8-tetraaza-cyclopenta[a]indene-2-carbonyl)-phenyl ester], for which the EC50 lay within 200 to 1000 nM. Next, `Cc1nc2c3c(nn2c(C)c1C)CN(C(=O)c1ccccc1Br)C3` [Example 49, (2-bromo-phenyl)-(5,6,7-trimethyl-1H,3H-2,4,7a,8-tetraaza-cyclopenta[a]inden-2-yl)-methanone]: 1000 to 2000 nM; `Cc1nc2c3c(nn2c(C)c1C)CN(C(=O)c1ccccc1N1CCCN(C)CC1)C3` [Example 19, [2-(4-methyl-[1,4]diazepan-1-yl)-phenyl]-(5,6,7-trimethyl-1H,3H-2,4,7a,8-tetraaza-cyclopenta[a]inden-2-yl)-methanone]: 200 to 1000 nM; `Cc1nc2c3c(nn2c(C)c1Cl)CN(C(=O)c1ccccc1N1CCCN(C)CC1)C3` [Example 6, (6-chloro-5,7-dimethyl-1H,3H-2,4,7a,8-tetraaza-cyclopenta[a]inden-2-yl)-[2-(4-methyl-[1,4]diazepan-1-yl)-phenyl]-methanone]: 200 to 1000 nM. Molecule `CCOc1ccccc1C(=O)N1Cc2nn3cc(Cl)cnc3c2C1` [Example 46, (6-chloro-1H,3H-2,4,7a,8-tetraaza-cyclopenta[a]inden-2-yl)-(2-ethoxy-phenyl)-methanone] yielded an EC50 of 1000 to 2000 nM. For `Cc1nc2c3c(nn2c(C)c1Cl)CN(C(=O)c1ccccc1OC1CCNCC1)C3` [Example 3, (6-chloro-5,7-dimethyl-1H,3H-2,4,7a,8-tetraaza-cyclopenta[a]inden-2-yl)-[2-(piperidin-4-yloxy)-phenyl]-methanone], the EC50 is less than 200 nM.

`Cc1nc2c3c(nn2c(C)c1C)CN(C(=O)c1ccccc1OC(C)C)C3` [Example 26, (2-isopropoxy-phenyl)-(5,6,7-trimethyl-1H,3H-2,4,7a,8-tetraaza-cyclopenta[a]inden-2-yl)-methanone]: the EC50 lay within 200 to 1000 nM. Next, `Cc1nc2c3c(nn2c(C)c1C)CN(C(=O)c1ccccc1OCCN1CCCCC1)C3` [Example 20, [2-(2-piperidin-1-yl-ethoxy)-phenyl]-(5,6,7-trimethyl-1H,3H-2,4,7a,8-tetraaza-cyclopenta[a]inden-2-yl)-methanone]: 200 to 1000 nM; `CCOc1ccccc1C(=O)N1Cc2nn3cc(Br)cnc3c2C1` [Example 48, (6-bromo-1H,3H-2,4,7a,8-tetraaza-cyclopenta[a]inden-2-yl)-(2-ethoxy-phenyl)-methanone]: 1000 to 2000 nM.

In the case of `Cc1nc2c3c(nn2c(C)c1Cl)CN(C(=O)c1ccccc1N1CCCC1)C3` [Example 7, (6-chloro-5,7-dimethyl-1H,3H-2,4,7a,8-tetraaza-cyclopenta[a]inden-2-yl)-(2-pyrrolidin-1-yl-phenyl)-methanone], the EC50 is 200 to 1000 nM. Molecule `Cc1nc2c3c(nn2c(C)c1Cl)CN(C(=O)c1ccc(F)cc1OCCn1cccn1)C3` [Example 18, (6-chloro-5,7-dimethyl-1H,3H-2,4,7a,8-tetraaza-cyclopenta[a]inden-2-yl)-[4-fluoro-2-(2-pyrazol-1-yl-ethoxy)-phenyl]-methanone] came in with an EC50 of 200 to 1000 nM.

The record behind these values is patent US9403835B2, “Tetraaza-cyclopenta[a]indenyl and their use as positive allosteric modulators” (Merck Patent GmbH, priority 2011, dated 2016).
